The values that follow come from PubChem BioAssay (NCI).

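Where inhibition never reached the appropriate level, the endpoint shown equals the highest concentration tested. Otherwise, values were interpolated linearly from a five-concentration, 48-hour dose response in 96-well plates. TGI is the concentration that stops growth completely.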 Some results are limits rather than exact numbers.

Assay in all cases: growth of human tumour cells (NCI), 48 h
Test [1] concerns M14 melanoma.
For test [2], the system named is MDA-N.
For test [3], the system named is NCI-H460 lung.
In test [4] the test system is NCI-H226 lung.
In test [5] the test system is HCT-116 colon.
Test [6] has as its system RPMI-8226 leukemia.
In test [7] the test system is SK-MEL-5 melanoma.
For test [8], the system named is HL-60(TB) leukemia.
In test [9] the test system is SF-539 CNS.
The subject of test [10] is SK-OV-3 ovarian.
Test [11] has as its system SNB-19 CNS.
Test [12] relates to SK-MEL-28 melanoma.
For test [13], the system named is MCF7 breast.
For test [14], the system named is LOX IMVI melanoma.

As for `O=c1oc2ccccc2c2nc3ccccc3cc12`, the TGI in test [1], in test [2], in [3], in [4], in test [5] and in test [6] was more than 100 µM each time. Also, the TGI in test [7] was more than 100 µM; in [8], more than 100 µM; in [9], 27.4 µM; in test [10] it was more than 100 µM; in [11], 70.3 µM; in test [12], more than 100 µM.

On to `COC(=O)c1cc(C(=O)OC)cc(-c2ccc3c(c2)-c2nc4c(c(-c5ccc(OC)cc5)c2CC3)CCc2ccc(-c3cc(C(=O)OC)cc(C(=O)OC)c3)cc2-4)c1`, for which the TGI in [1], in [2], in [3], in test [13], in test [4] and in test [5] was more than 100 µM throughout. Moreover, the TGI in [6], in test [7], in test [10], in [11] and in test [12] was more than 100 µM in each case.

Regarding `O=C1NN=C(c2c[nH]c3ccccc23)CC1NCc1ccccc1` (configuration not stated), the TGI in test [1], in test [2], in [3], in test [14], in test [4] and in test [5] was more than 100 µM throughout. Further, the TGI in [6], in [7], in test [8], in test [9], in [10] and in test [11] was more than 100 µM in each case. In [12], this molecule returned a TGI of more than 100 µM.

With `CCN(CC)C(=S)SS(=O)(=O)c1ccc(C)cc1`, the TGI in test [1] was 28.2 µM; in test [2] it was more than 100 µM; in [3] it was more than 100 µM; in [14] it was 36.1 µM; in test [4], more than 100 µM; in [7], 30.4 µM. Further, the TGI is 39 µM in test [9], more than 100 µM in test [10], more than 100 µM in test [11] and 39.4 µM in test [12].

With `NS(=O)(=O)c1nnc(NSc2ccc([N+](=O)[O-])cc2)s1`, the TGI in test [1], in [2], in test [3], in test [13], in [14] and in test [4] was more than 100 µM each time. The TGI in test [5], in test [6], in [7], in test [10], in test [11] and in [12] was more than 100 µM each time.

Regarding `CC1=CCC[C@H]2[C@](C)(CC3=CC(=O)C4SCCSC4C3=O)[C@@H](C)CC[C@]12C` (some centres not stated), the TGI came to 29.8 µM in test [1]; 25.9 µM in test [2]; 65 µM in [3]; 63.8 µM in test [13]; 24.3 µM in test [14]; 30.3 µM in [4]. The TGI in test [5] amounted to 31 µM; in [6] it was 41.8 µM; in test [7], 26.7 µM; in [9], 40.3 µM; in [11], 37.1 µM; in test [12] it was 38.4 µM.

As for `COc1ccc(N2C(=O)C3c4[nH]c5ccccc5c4C4C(C)CCCC4C3C2=O)cc1` (configuration not stated), the TGI is more than 100 µM in test [1]; 18.3 µM in test [2]; more than 100 µM in test [3]; more than 100 µM in [13]; more than 100 µM in test [14]; more than 100 µM in [4]. In addition, the TGI is more than 100 µM in test [5]; more than 100 µM in [6]; more than 100 µM in [7]; more than 82.8 µM in test [9]; more than 100 µM in test [10]; more than 100 µM in test [11]. The molecule further had a TGI in test [12] of more than 100 µM.

`CCOP(=O)(OCC)c1cc(-c2ccccc2)ccc1N`: the TGI in test [1], in test [2], in test [3], in test [13], in test [5] and in test [6] was more than 100 µM each time. For the same molecule, the TGI in test [7], in test [10], in [11] and in [12] was more than 100 µM in each case.

`OC(c1ccco1)C(F)(F)c1nc2ccccc2o1` (configuration not stated): the TGI in test [1], in test [3], in test [13], in [14], in [4] and in [5] was more than 100 µM in each case. The TGI in test [6], in test [7], in test [8], in [9], in test [10] and in [11] was more than 100 µM each time. In [12], this molecule gave a TGI of more than 100 µM.

On to `CCCC[C@@H]1CCN2C[C@@H](O)[C@@H](O)[C@H]2[C@@H]1O`, for which the TGI in test [1], in test [3], in test [13], in [14], in test [4] and in test [5] was more than 100 µM throughout. Further, the TGI in test [6], in test [7], in test [8], in test [9], in test [10] and in [11] was more than 100 µM each time. Besides, in test [12], the TGI is more than 100 µM.

Consider `NNC(=O)c1cccc2c1Oc1ccccc1S2`, for which the TGI in [1], in test [3], in test [13], in test [14], in [4] and in [5] was more than 100 µM each time. The TGI in test [6], in test [7], in [8], in [9], in test [10] and in [11] was more than 100 µM in each case. This molecule also returned a TGI in test [12] of more than 100 µM.
